What was measured:
S115 tumor grafts = assay: Murine s.c. alginate implant assay, S115 cells; format: in vivo, athymic Nu/Nu male mice; conditions: i.p. 100 mg/kg every other day, plugs harvested day 14, compared to ARPVA-treated animals
Protocol: (§1) Eightweek-old athymic Nu/Nu or C57BL/6 male mice were injected s.c. with 450 μl of 3% (w/v) sodium alginate solution (alginic acid dissolved in LPS-free PBS) containing 5×10^6 S115 or 8×10^6 TRAMP-C2 cells, respectively. Mice were treated i.p. with ARPCA or ARPVA (100 mg/kg) on day 7, 9, 11 and 13 after implant. On day 14, alginate gels were harvested, weighted, embedded in OCT-compound and immediately frozen to be processed for histological analysis. For immunofluorescence stainings, sections (5 μm thick) were obtained with a cryostat microtome, air dried and fixed with acetone (for 5 min at 4°C). After blocking with 1% BSA (Bovine Serum Albumin) in PBS for 10 minutes, sections were incubated with primary antibodies, rabbit anti-FGFR1 (Santa Cruz Biotechnology), rabbit anti-phospho FGFR1 (Santa Cruz Biotechnology), Ki67 (Dako, Milano, Italy, EU) or CD31 (BD Biosciences Pharmingen, San Diego, CA, USA). After washing with PBS containing 0.05% Tween 20, sections were incubated with the appropriate Alexa Fluor 488 or Alexa Fluor 594-conjugated secondary antibody (Invitrogen). After mounting in a drop of anti-bleaching mounting medium containing DAPI (Vectashield, Vector Laboratories, Burlingame, CA, USA), sections were examined under a Zeiss Fluorescence Axiovert 200M microscope (Carl Zeiss).

FGF8b = molecular target: T1, FGF8b (Homo sapiens, UniProt P55075); assay: ARPCA-FGF8 interaction by 2D 1H-13C HSQC NMR titration; format: binding; set-up: purchased ASLA (Riga, Latvia); conditions: 190 μM ARPCA, FGF8b:ARPCA 0.5:1 and 1:1, intermediate to fast exchange
T1 sequence (P55075 23-215 isoform P55075-3 limits assumed): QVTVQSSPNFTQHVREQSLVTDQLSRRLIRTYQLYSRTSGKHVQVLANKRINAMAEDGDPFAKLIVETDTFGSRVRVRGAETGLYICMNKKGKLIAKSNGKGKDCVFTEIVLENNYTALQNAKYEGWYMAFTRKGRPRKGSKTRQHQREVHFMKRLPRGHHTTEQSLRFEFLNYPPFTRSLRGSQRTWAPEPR
Protocol: NMR experiments were collected on samples containing 190 μM of ARPCA, dissolved in 50 mM potassium phosphate buffer pH 6.7 (90% H2O/10% D2O), 2.5 mM arginine, 10mM NaCl in the presence of variable concentrations of FGF8 corresponding to 1:0, 1:0.5, and 1:1 ARPCA:FGF8 ratios.
2D 1H-13C HSQC spectra were recorded with a sweep width of 10 ppm and 100 ppm.2k × 128 data points were used in proton and carbon dimensions, respectively. Data, acquired and processed using Topspin (Bruker Biospin), were apodized with a squared sinebell shifted by 90° and polynomial baseline correction. All NMR spectra were recorded at 298 K with a Bruker DMX spectrometer operating at 600 MHz.

FGF9 = FGF9 (Homo sapiens, UniProt P31371); assay: SPR analysis of FGF/ARPCA interaction, FGF9; format: binding; conditions: immobilized FGF9
TRAMP-C2 alginate plugs = assay: Murine s.c. alginate implant assay, TRAMP-C2 cells; format: in vivo, C57BL/6 male mice; conditions: i.p. at 100 mg/kg every other day
Protocol: as §1

FGF23 = molecular target: T2, FGF23 (Homo sapiens, UniProt Q9GZV9); assay: SPR analysis of ARPCA on immobilized FGF23; format: binding; conditions: data not shown
T2 sequence (Q9GZV9 25-251): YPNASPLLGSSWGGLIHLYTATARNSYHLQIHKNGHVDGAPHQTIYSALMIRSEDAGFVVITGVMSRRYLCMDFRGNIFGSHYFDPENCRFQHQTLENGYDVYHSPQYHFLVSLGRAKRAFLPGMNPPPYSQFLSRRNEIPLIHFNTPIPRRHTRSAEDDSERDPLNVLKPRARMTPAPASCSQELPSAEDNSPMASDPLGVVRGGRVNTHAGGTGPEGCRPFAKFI

[1] = molecular target: T3, HSPG/FGF8b/FGFR1 ternary complexes (Homo sapiens, UniProt P55075); assay: HSPG/FGF8b/FGFR1 mediated cell-cell adhesion assay; format: cell-based; conditions: 30 ng/ml FGF8b, increasing peptide concentrations
T3 construct: purchased PeproTech; host or cells: FGF8b was added to A745-CHO-flg-1A-luc cells (FGFR1 IIIc transfected) on a glutaraldehyde-fixed CHO-K1 monolayer (endogenous HSPGs)
T3 sequence (P55075 23-215 isoform P55075-3 limits assumed): T1 sequence (P55075 23-215 isoform P55075-3 limits assumed)
Protocol: This assay was performed as described with minor modifications. Briefly, wild-type CHO-K1 cells were seeded in 24-well plates at 150000 cells/cm^2. After 24 h, cell monolayers were washed with PBS and incubated with 3% glutaraldehyde in PBS for 2 h at 4°C. Fixation was stopped with 0.1 M glycine and cells were washed extensively with PBS. Then, A745-CHO-flg-1A-luc cells (50000 cells/cm^2) were added to CHO-K1 monolayers in serum-free medium plus 10 mM EDTA with or without 30 ng/ml FGF8b in the absence or presence of increasing concentrations of the ARPCA or ARPVA peptides. After 2 h of incubation at 37°C, unattached cells were removed by washing twice with PBS, and A745-CHO-flg-1A-luc bound to the CHO-K1 monolayer were solubilized and luciferase activity was quantified. All experiments were performed in triplicate.

FGF10 = molecular target: T4, FGF10 (Homo sapiens, UniProt O15520); assay: SPR analysis of FGF/ARPCA interaction, FGF10; format: binding; conditions: immobilized FGF10
T4 sequence (O15520 38-208): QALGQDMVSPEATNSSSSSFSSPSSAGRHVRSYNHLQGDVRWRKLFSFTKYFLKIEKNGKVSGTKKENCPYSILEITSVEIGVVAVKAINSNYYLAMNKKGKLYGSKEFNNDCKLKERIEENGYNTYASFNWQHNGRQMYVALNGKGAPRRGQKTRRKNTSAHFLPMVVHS

S115 tumors = assay: In vivo tumor therapy study, S115 tumors; set-up: species or system athymic Nu/Nu male mice; conditions: s.c. S115 cells, i.p. 100 mg/kg every other day starting at day 8, followed for the next 32 days
Protocol: Eight week old C57BL/6 male mice were injected s.c. with 8×10^6 TRAMP-C2 cells, and eight week old athymic Nu/Nu male mice were injected s.c. with 5×10^6 S115 cells. All injections were performed in 200 μl total volume of PBS into the dorsolateral flank. When tumors were palpable treatment was performed every other day by i.p. injection of ARPCA, ARPVA (both at 100 mg/kg) or vehicle (PBS) in 100 μl final volume. Tumors were measured in two dimensions and tumor volume was calculated according to the formula V=(D × d^2)/2, where D and d are the major and minor perpendicular tumor diameters, respectively. At the end of the experimental procedure tumors were harvested, weighted and photographed.

Substance: Ac-ARPCA-NH2 [ARPCA, Ac-ARPCA-NH2]
- CD31+ neovascularization in S115 tumor grafts (S115 tumor grafts): efficiently inhibited
- FGFR1 phosphorylation in S115 tumor grafts (S115 tumor grafts): efficiently inhibited
- Ki67+ proliferation index in S115 tumor grafts (S115 tumor grafts): efficiently inhibited
- binding to FGF8b indicated by NMR titration (FGF8b): micromolar range
- Kd, FGF9 (FGF9): n.b.
- CD31-positive tumor vascularization in TRAMP-C2 alginate plugs (TRAMP-C2 alginate plugs): decrease
- FGFR1 activation in TRAMP-C2 alginate plugs (TRAMP-C2 alginate plugs): impaired FGFR1 activation
- tumor cell proliferation rate (Ki67 immunostaining) in TRAMP-C2 alginate plugs (TRAMP-C2 alginate plugs): decrease
- interaction with immobilized FGF23 (FGF23): did not show any interaction
- inhibitory activity on FGF8b-mediated cell-cell adhesion (in words) [1]: dose-dependent inhibitory activity
- Kd, FGF10 (FGF10): n.b.
- S115 tumor growth, long-term experiment (S115 tumors): suppresses S115 tumor growth

— publication PMC4537050, “A long pentraxin-3-derived pentapeptide for the therapy of FGF8b-driven steroid hormone-regulated cancers” (Oncotarget, 2015)
